Measurements from the supplement of paper PMC10307832.

Tests used:
Assay in all cases: relative viability (nuclei count vs DMSO), 5 days (fraction); higher = more cells survive
Pemetrexed + Olaparib = compound: Nc1nc2[nH]cc(CCc3ccc(C(=O)N[C@@H](CCC(=O)O)C(=O)O)cc3)c2c(=O)[nH]1 [Pemetrexed] + O=C(c1cc(Cc2n[nH]c(=O)c3ccccc23)ccc1F)N1CCN(C(=O)C2CC2)CC1 [Olaparib] (partner 8 µM)
How it was run: (§1)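 After 5 days of treatment, lung cancer cells in 1536-well plates were fixed and stained in a single step (final 0.05% Triton X-100, 1% formaldehyde, 1 ug/ml Hoechst) and their nuclei counted on 4× images. Treatment had been applied by pin tool the day after seeding as one drug alone or as a fixed anchor-drug dose with five library-drug doses (not always all listed) in √10 steps. Relative viability is the nuclei count of treated wells divided by that of vehicle wells, and values are medians of duplicate plates.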

Idelalisib + AZD7762 = compound: CC[C@H](Nc1ncnc2[nH]cnc12)c1nc2cccc(F)c2c(=O)n1-c1ccccc1 [Idelalisib] + NC(=O)Nc1cc(-c2cccc(F)c2)sc1C(=O)N[C@H]1CCCNC1 [AZD7762] (partner 0.2 µM)
How it was run: as §1

Idelalisib + Bortezomib = compound: CC[C@H](Nc1ncnc2[nH]cnc12)c1nc2cccc(F)c2c(=O)n1-c1ccccc1 [Idelalisib] + CC(C)C[C@H](NC(=O)[C@H](Cc1ccccc1)NC(=O)c1cnccn1)B(O)O [Bortezomib] (partner 0.002 µM)
How it was run: as §1

Pemetrexed + Pictilisib = compound: Nc1nc2[nH]cc(CCc3ccc(C(=O)N[C@@H](CCC(=O)O)C(=O)O)cc3)c2c(=O)[nH]1 [Pemetrexed] + CS(=O)(=O)N1CCN(Cc2cc3nc(-c4cccc5[nH]ncc45)nc(N4CCOCC4)c3s2)CC1 [Pictilisib] (partner 1 µM)
How it was run: as §1

Cell Line	relative viability (Pemetrexed + Olaparib; first compound 0.002 µM)	relative viability (Pemetrexed + Olaparib; first compound 0.006325 µM)	relative viability (Pemetrexed + Olaparib; first compound 0.02 µM)	relative viability (Pemetrexed + Olaparib; first compound 0.06325 µM)	relative viability (Pemetrexed + Olaparib; first compound 0.2 µM)	relative viability (Idelalisib + AZD7762; first compound 0.04 µM)	relative viability (Idelalisib + AZD7762; first compound 0.1265 µM)	relative viability (Idelalisib + AZD7762; first compound 0.4 µM)	relative viability (Idelalisib + AZD7762; first compound 1.265 µM)	relative viability (Idelalisib + AZD7762; first compound 4 µM)	relative viability (Idelalisib + Bortezomib; first compound 0.04 µM)	relative viability (Idelalisib + Bortezomib; first compound 0.1265 µM)	relative viability (Idelalisib + Bortezomib; first compound 0.4 µM)	relative viability (Idelalisib + Bortezomib; first compound 1.265 µM)	relative viability (Idelalisib + Bortezomib; first compound 4 µM)	relative viability (Pemetrexed + Pictilisib; first compound 0.002 µM)	relative viability (Pemetrexed + Pictilisib; first compound 0.006325 µM)	relative viability (Pemetrexed + Pictilisib; first compound 0.02 µM)	relative viability (Pemetrexed + Pictilisib; first compound 0.06325 µM)	relative viability (Pemetrexed + Pictilisib; first compound 0.2 µM)
RERF-LC-KJ	0.956	0.843	0.973	0.865	0.612	1.05	0.947	0.924	1.06	0.783	1.2	1.08	0.95	1.13	0.878	0.579	0.471	0.558	0.594	0.277
NCI-H1975	0.645	0.748	0.765	0.677	0.323	0.75	0.724	0.661	0.743	0.646	0.34	0.374	0.385	0.371	0.343	–	0.3	0.299	0.271	0.221
IA-LM	0.74	0.725	0.926	0.889	0.852	–	–	–	–	–	0.987	0.847	0.956	0.88	0.889	0.115	0.323	–	0.343	0.339
NCI-H520	0.282	0.385	0.356	0.335	0.319	–	–	–	–	–	0.464	0.552	0.367	0.634	0.278	0.247	0.254	0.349	0.322	0.275
NCI-H1395	0.427	0.421	0.5	0.41	0.426	0.415	0.45	0.417	0.371	0.422	–	–	–	–	–	0.824	0.58	0.679	0.54	0.574
EBC-1	0.684	0.714	0.723	0.665	0.545	–	–	–	–	–	0.646	0.603	0.587	0.505	0.444	0.341	0.346	0.395	0.337	0.339
NCI-H2009	0.648	0.689	0.714	0.651	0.661	–	–	–	–	–	1.02	1.07	0.995	1.14	0.991	0.785	0.763	0.824	0.744	0.723
NCI-H358	0.582	0.622	0.66	0.397	0.151	0.571	0.462	0.377	0.295	0.409	–	–	–	–	–	0.338	0.264	0.29	0.243	0.21
SK-LU-1	0.405	0.5	0.58	0.51	0.455	–	–	–	–	–	1.06	1.14	0.961	0.95	1.04	0.43	0.559	0.727	0.513	0.496
NCI-H2228	0.657	0.478	0.695	0.329	0.273	–	–	–	–	–	1.07	0.983	1.09	1.05	1.03	0.194	0.427	0.379	0.35	0.238
A549	0.29	0.292	0.379	0.338	0.343	–	–	–	–	–	–	–	–	–	–	0.42	0.519	0.602	0.483	0.489
NCI-H1563	–	–	–	–	–	–	–	–	–	–	0.932	0.858	0.696	0.864	0.681	0.705	0.609	0.665	0.634	0.625
NCI-H1299	0.967	0.913	0.949	0.956	0.983	–	–	–	–	–	1.03	1.03	1.02	1.09	1.03	0.86	0.724	1.06	0.762	0.536
NCI-H661	0.741	0.743	0.71	0.759	0.679	–	–	–	–	–	0.679	0.658	0.496	0.661	0.628	0.487	0.402	0.438	–	0.424
NCI-H522	0.484	0.549	0.572	0.511	0.703	0.857	0.909	0.849	0.745	0.851	–	–	–	–	–	–	–	–	–	–
NCI-H1648	0.953	0.926	0.768	0.732	0.766	0.652	0.638	0.866	0.6	0.504	–	–	–	–	–	–	–	–	–	–
NCI-H1944	0.317	0.368	0.395	0.393	0.402	0.554	0.501	0.457	0.2	0.61	–	–	–	–	–	0.307	0.345	0.337	0.345	0.327
COR-L23	0.28	0.406	0.36	0.253	0.152	–	–	–	–	–	0.874	1.01	0.947	1.22	0.956	0.58	0.688	0.825	0.24	0.147
NCI-H2170	0.573	0.62	0.652	0.633	0.555	0.859	0.873	0.819	0.542	0.737	–	–	–	–	–	0.303	0.307	0.242	0.305	0.276
NCI-H1793	0.868	0.712	0.912	0.919	0.774	0.758	0.449	–	0.14	0.326	–	–	–	–	–	0.303	0.299	0.341	0.247	0.311
COR-L 105	0.706	0.74	0.746	0.738	0.662	–	–	–	–	–	0.906	0.92	0.53	1.02	0.713	0.406	0.463	0.423	0.386	0.416
